Like-named read-outs stand apart in the source and are kept apart here.
Experiments:
5-HT1A receptor = details: Fozard et al. 1987, cited from earlier work
synthesis of dopamine = assay: Effect on dopamine synthesis: inhibition of dopa accumulation in GBL/NSD-1015-treated rats (Walters and Roth); type: in vivo, rats (male, Sprague-Dawley); details: Rattus norvegicus, sc, read-out: Dopa Accumulation (% inhib. @ 10 mg/kg, sc)
Protocol: The effect of the compounds of the invention on the synthesis of dopamine was established by the method of Walters and Roth, Naunyn-Schmiedeberg's Arch. Pharmacol. 296:5-14, 1976, in which rats (male, Sprague-Dawley, Charles River, 200-350 g) were administered vehicle or test drug ten minutes prior to the administration of gamma butyrolactone (GBL; 750 mg/kg, ip to inhibit dopaminergic impulse flow) and 20 minutes prior to NSD-1015 (100 mg/kg, ip to prevent the conversion of dopa to dopamine). Thirty minutes after NSD-1015 all rats were decapitated and the nucleus accumbens and the striatum were removed for analysis. Following perchloric acid extraction of the tissue, the extracts were placed over alumina columns to collect and concentrate dopa and other catechols. This eluate was then subjected to HPLC analysis using electrochemical detection to quantify the levels of dopa present. Dopamine autoreceptor agonists, under the conditions used above, inhibit dopa accumulation.

mouse locomotor activity = assay: Reduction of mouse locomotor activity (hypolocomotion; Martin and Bendensky); type: in vivo, mice (male, CF-1); details: ip, horizontal activity counts 10 to 20 minutes after dosing
Protocol: The antipsychotic activity of the compounds of the invention was further established by a determination of the compounds' ability to reduce mouse locomotor activity according to the method of Martin and Bendensky, J. Pharmacol. Exp. Therap. 229:706-711, 1984, in which mice (male, CF-1, Charles River, 20-30 g) were injected with vehicle or various doses of each drug and locomotor activity was measured for 30 minutes using automated infrared activity monitors (Omnitech--8×8 inch open field) located in a darkened room. ED50 's were calculated from the horizontal activity counts collected from 10 to 20 minutes after dosing using a nonlinear regression analysis with inverse prediction.

dopamine D2 receptor = target: T1, dopamine D2 receptor (Rattus norvegicus, UniProt P61169); assay: Affinity for dopamine D2 receptor (3H-quinpirole, rat striatal homogenate); type: binding; details: rat striatal brain tissue
T1 construct: homogenized rat striatal brain tissue; from tissue; host or cells: rat striatum (homogenized brain tissue)
Protocol: Affinity for the dopamine D2 receptor was established by a modification of the standard experimental test procedure of Seemen and Schaus, European Journal of Pharmacology 203: 105-109, 1991, wherein homogenized rat striatal brain tissue is incubated with ^3 H-quinpirole and various concentrations of test compound, filtered and washed and counted in a Betaplate scintillation counter.

T1 sequence (P61169 whole entry): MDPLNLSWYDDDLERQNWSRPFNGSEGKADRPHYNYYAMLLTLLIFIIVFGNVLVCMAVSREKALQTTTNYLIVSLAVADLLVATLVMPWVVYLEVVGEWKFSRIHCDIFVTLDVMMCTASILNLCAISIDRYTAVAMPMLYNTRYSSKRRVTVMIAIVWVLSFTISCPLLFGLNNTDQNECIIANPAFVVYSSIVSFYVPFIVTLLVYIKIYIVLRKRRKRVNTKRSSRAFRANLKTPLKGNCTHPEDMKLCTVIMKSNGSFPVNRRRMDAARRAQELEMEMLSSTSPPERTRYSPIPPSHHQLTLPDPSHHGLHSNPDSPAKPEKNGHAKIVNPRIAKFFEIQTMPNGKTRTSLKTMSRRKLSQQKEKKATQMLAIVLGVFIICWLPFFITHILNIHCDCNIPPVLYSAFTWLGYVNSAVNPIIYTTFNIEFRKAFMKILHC

inhibition at 0.1 µM (dopamine D2 receptor) | SMILES | inhibition at 10 mg/kg (synthesis of dopamine; limbic (L) brain tissue) | ED50 (mouse locomotor activity) | other results
25% | c1cc(OCCCNCC2COc3cc4c(cc3O2)OCO4)c2cccnc2c1 (centres unmarked) [Example 3, N-[3-(Quinolin-5-yloxy)propyl]-2,3-dihydro-6,7-methylenedioxy-1,4-benzodioxin-2-methanamine] | 42.6% | 12.6 mg/kg | –
55% | COc1ccc2c(c1)OC(CNCCCOc1ccc3cccnc3c1)CO2 (centres unmarked) [Example 4, N-[3-(Quinolin-7-yloxy)propyl]-2,3-dihydro-7-methoxy-1,4-benzodioxin-2-methanamine] | – | – | –

Second part, the compound before the results:

SMILES | inhibition at 0.1 µM (dopamine D2 receptor) | inhibition at 10 mg/kg (synthesis of dopamine; limbic (L) brain tissue) | ED50 (mouse locomotor activity) | other results
O=C1CC2(CCCC2)CC(=O)N1CCCCNCC1COc2ccccc2O1 (single isomer, unassigned; (-)) [(-)-MDL 72832] | – | – | – | binding at the 5-HT1A receptor site relative to the dextrorotary isomer (times as much) (5-HT1A receptor; (-)-isomer vs dextrorotary isomer): 32 times
c1ccc2c(c1)OCC(CNCCCOc1ccc3cccnc3c1)O2 (centres unmarked) [Example 1, N-[3-(Quinolin-7-yloxy)propyl]-2,3-dihydro-1,4-benzodioxin-2-methanamine] | – | 29% | – | inhibition at 10 mg/kg (synthesis of dopamine; striatal (S) brain tissue): 44%
c1cnc2cc(OCCCNCC3COc4cc5c(cc4O3)OCO5)ccc2c1 (centres unmarked) [Example 2, N-[3-(Quinolin-7-yloxy)propyl]-2,3-dihydro-6,7-methylenedioxy-1,4-benzodioxin-2-methanamine] | – | 60.4% | 3 mg/kg | IC50 (dopamine D2 receptor): 63 nM
O=C1CC2(CCCC2)CC(=O)N1CCCCNCC1COc2ccccc2O1 (centres unmarked) [MDL 72832, 8-[4-(1,4-benzodioxan-2-ylmethylamino)butyl]-8-azaspiro[4.5]decane-7,9-dione] | – | – | – | ligand for 5-HT1A receptors (in words) (5-HT1A receptor): selective and stereospecific

Source: US5235055A, “Antipsychotic quinoline derivatives of benzodioxanmethylamine” (American Home Products Corporation, priority 1992, dated 1993)
